Drawing on article PMC8696196 (RSC Advances, 2021), this text covers EC50 for two compounds.

This assay addresses H3N2 E119V (A/Moscow/10/99 background, E119V mutation in the neuraminidase gene). It counts as cell-based, influenza A virus. The settings on record: read-out: EC50 H3N2 E119V.

Bounds are passed on as bounds.

One may read the EC50 as the concentration needed to bring the measured effect to its halfway point. With `CCC(CC)O[C@@H]1C=C(C(=O)O)C[C@H](n2nncc2-c2cccc(N)c2)[C@H]1NC(C)=O` [Compound 2j, (3R,4R,5S)-4-Acetamido-5-[5-(3-aminophenyl)-1H-1,2,3-triazol-1-yl]-3-(pentan-3-yloxy)cyclohex-1-ene-1-carboxylic acid], the EC50 was greater than 100 µM.

In the case of `CCC(CC)O[C@@H]1C=C(C(=O)O)C[C@H](N)[C@H]1NC(C)=O` [OSC, oseltamivir carboxylate, reference compound], the EC50 is greater than 100 µM.
